Measurements published in patent US12534452B2, “N-(1H-imidazol-2-yl)benzamide compound and pharmaceutical composition comprising the same as active ingredient” (KAINOS MEDICINE, INC., priority 2019, dated 2026).

biological target: IRAK4 (Homo sapiens (Human), UniProt Q9NWZ3); test: In vitro IRAK4 phosphorylation activity assay; assay type: biochemical; conditions: [γ-33P]-ATP, myelin basic protein substrate, 40 minutes at room temperature; categories
Summary of the method: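 Radiometric filter-binding assay, no compound–kinase preincubation; 8 mM MOPS pH 7.0, 0.2 mM EDTA, 10 mM Mg acetate, 0.33 mg/mL myelin basic protein substrate, [γ-33P]-ATP. Reaction 40 min at room temperature, stopped with phosphoric acid, scintillation counting; IC50 reported in categories.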

IRAK4, sequence (Q9NWZ3 whole entry): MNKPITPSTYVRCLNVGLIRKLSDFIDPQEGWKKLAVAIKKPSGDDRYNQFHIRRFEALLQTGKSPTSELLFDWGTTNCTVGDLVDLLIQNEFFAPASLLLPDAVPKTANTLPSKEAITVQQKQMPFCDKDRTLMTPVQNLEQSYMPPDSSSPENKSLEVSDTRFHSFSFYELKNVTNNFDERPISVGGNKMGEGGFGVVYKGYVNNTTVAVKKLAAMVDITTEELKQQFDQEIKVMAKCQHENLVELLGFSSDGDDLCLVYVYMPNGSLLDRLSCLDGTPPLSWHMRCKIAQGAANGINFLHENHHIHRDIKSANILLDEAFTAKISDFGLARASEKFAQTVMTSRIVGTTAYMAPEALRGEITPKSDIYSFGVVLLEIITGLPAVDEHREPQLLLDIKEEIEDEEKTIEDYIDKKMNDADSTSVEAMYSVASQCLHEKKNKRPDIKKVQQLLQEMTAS

SMILES | IC50
O=C(CCCCc1cn(-c2ccccc2)c(NC(=O)c2cccc(-c3cn[nH]c3)c2)n1)NC1CCCCC1 [Example 89, N-(4-(5-(cyclohexylamino)-5-oxopentyl)-1-phenyl-1H-imidazol-2-yl)-3-(1H-pyrazol-4-yl)benzamide] | < 50 nM
O=C(CCCc1cn(-c2ccccc2)c(NC(=O)c2cccc(-c3ccc4scnc4c3)c2)n1)NC1CC1 [Example 283, 3-(benzo[d]thiazol-5-yl)-N-(4-(4-(cyclopropylamino)-4-oxobutyl)-1-phenyl-1H-imidazol-2-yl)benzamide] | > 100 nM
CNC(=O)Cc1cn(-c2ccccc2)c(NC(=O)c2ccc3[nH]ncc3c2)n1 [Example 49, N-(4-(2-(methylamino)-2-oxoethyl)-1-phenyl-1H-imidazol-2-yl)-1H-indazole-5-carboxamide] | > 100 nM
Nc1ccc(-c2cccc(C(=O)Nc3nc(CCCCN4CCCC4=O)cn3-c3ccccc3)c2)cn1 [Example 277, 3-(6-aminopyridin-3-yl)-N-(4-(4-(2-oxopyrrolidin-1-yl)butyl)-1-phenyl-1H-imidazol-2-yl)benzamide] | < 50 nM
Cn1cc(-c2cccc(C(=O)Nc3nc(CCCC(=O)N4CCC[C@H](C(=O)O)C4)cn3-c3ccccc3)c2)cn1 [Example 207, (S)-1-(4-(2-(3-(1-methyl-1H-pyrazol-4-yl)benzamido)-1-phenyl-1H-imidazol-4-yl)butanoyl)piperidine-3-carboxylic acid] | < 50 nM
O=C(CCc1cn(-c2ccccc2)c(NC(=O)c2cccc(-c3cn[nH]c3)c2)n1)Nn1cnnc1 [Example 21, N-(4-(3-((4H-1,2,4-triazol-4-yl)amino)-3-oxopropyl)-1-phenyl-1H-imidazol-2-yl)-3-(1H-pyrazol-4-yl)benzamide] | 50 to 100 nM
Nc1ccc(-c2cccc(C(=O)Nc3nc(CCCCCCN4CCCC4=O)cn3-c3ccccc3)c2)cn1 [Example 276, 3-(6-aminopyridin-3-yl)-N-(4-(6-(2-oxopyrrolidin-1-yl)hexyl)-1-phenyl-1H-imidazol-2-yl)benzamide] | < 50 nM
O=C(CCCc1cn(-c2ccccc2)c(NC(=O)c2cccc(-c3cnn(C(F)(F)F)c3)c2)n1)NC1CC1 [Example 236, N-(4-(4-(cyclopropylamino)-4-oxobutyl)-1-phenyl-1H-imidazol-2-yl)-3-(1-(trifluoromethyl)-1H-pyrazol-4-yl)benzamide] | < 50 nM
Nc1ccc(-c2cccc(C(=O)Nc3nc(CCCCCCNC(=O)C4CC4)cn3-c3ccccc3)c2)cn1 [Example 278, 3-(6-aminopyridin-3-yl)-N-(4-(6-(cyclopropanecarboxamido)hexyl)-1-phenyl-1H-imidazol-2-yl)benzamide] | < 50 nM
Cn1cc(-c2cccc(C(=O)Nc3nc(CCCC(=O)NC4CCC(O)CC4)cn3-c3ccccc3)c2)cn1 [Example 156, N-(4-(4-(((1R,4R)-4-hydroxycyclohexyl)amino)-4-oxobutyl)-1-phenyl-1H-imidazol-2-yl)-3-(1-methyl-1H-pyrazol-4-yl)benzamide] | < 50 nM
CN1CCC(NC(=O)CCCc2cn(-c3ccccc3)c(NC(=O)c3cccc(-c4cnn(C)c4)c3)n2)CC1 [Example 148, 3-(1-methyl-1H-pyrazol-4-yl)-N-(4-(4-((1-methylpiperidin-4-yl)amino)-4-oxobutyl)-1-phenyl-1H-imidazol-2-yl)benzamide] | 50 to 100 nM
C[C@@H]1CCCCN1C(=O)CCCCc1cn(-c2ccccc2)c(NC(=O)c2cccc(-c3cn[nH]c3)c2)n1 [Example 83, (R)—N-(4-(5-(2-methylpiperidin-1-yl)-5-oxopentyl)-1-phenyl-1H-imidazol-2-yl)-3-(1H-pyrazol-4-yl)benzamide] | < 50 nM
CN1CCN(C(=O)CCCc2cn(-c3ccccc3)c(NC(=O)c3cccc(-c4ccc5scnc5c4)c3)n2)CC1 [Example 284, 3-(benzo[d]thiazol-5-yl)-N-(4-(4-(4-methylpiperazin-1-yl)-4-oxobutyl)-1-phenyl-1H-imidazol-2-yl)benzamide] | > 100 nM
Cn1cc(-c2cccc(C(=O)Nc3nc(CCCC(=O)N4CCNCC4)cn3-c3ccccc3)c2)cn1 [Example 202, 3-(1-methyl-1H-pyrazol-4-yl)-N-(4-(4-oxo-4-(piperazin-1-yl)butyl)-1-phenyl-1H-imidazol-2-yl)benzamide] | < 50 nM
O=C(Nc1nc(CCN2CCCCC2)cn1-c1ccccc1)c1cccc(-c2cn[nH]c2)c1 [Example 104, N-(1-phenyl-4-(2-(piperidin-1-yl)ethyl)-1H-imidazol-2-yl)-3-(1H-pyrazol-4-yl)benzamide] | > 100 nM
C[C@@H]1CCC[C@H](C)N1C(=O)CCc1cn(-c2ccccc2)c(NC(=O)c2cccc(-c3cn[nH]c3)c2)n1 [Example 32, N-(4-(3-((2R,6S)-2,6-dimethylpiperidin-1-yl)-3-oxopropyl)-1-phenyl-1H-imidazol-2-yl)-3-(1H-pyrazol-4-yl)benzamide] | < 50 nM
CN1CCN(C(=O)CCCc2cn(-c3ccc(F)cc3)c(NC(=O)c3cccc(-c4cnn(C)c4)c3)n2)CC1 [Example 299, N-(1-(4-fluorophenyl)-4-(4-(4-methylpiperazin-1-yl)-4-oxobutyl)-1H-imidazol-2-yl)-3-(1-methyl-1H-pyrazol-4-yl)benzamide] | < 50 nM

SMILES | IC50
O=C(CCCc1cn(-c2ccccc2)c(NC(=O)c2cccc(-c3ccc4cn[nH]c4c3)c2)n1)NC1CC1 [Example 250, N-(4-(4-(cyclopropylamino)-4-oxobutyl)-1-phenyl-1H-imidazol-2-yl)-3-(1H-indazol-6-yl)benzamide] | < 50 nM
CN(C)C1CCN(C(=O)CCCc2cn(-c3ccccc3)c(NC(=O)c3cccc(-c4cnn(C)c4)c3)n2)CC1 [Example 146, N-(4-(4-(4-(dimethylamino)piperidin-1-yl)-4-oxobutyl)-1-phenyl-1H-imidazol-2-yl)-3-(1-methyl-1H-pyrazol-4-yl)benzamide] | < 50 nM
CN(C)CCNC(=O)CCCc1cn(-c2ccccc2)c(NC(=O)c2cccc(-c3cnn(C)c3)c2)n1 [Example 162, N-(4-(4-((2-(dimethylamino)ethyl)amino)-4-oxobutyl)-1-phenyl-1H-imidazol-2-yl)-3-(1-methyl-1H-pyrazol-4-yl)benzamide] | 50 to 100 nM
COC[C@H]1CCCN1NC(=O)Cc1cn(-c2ccccc2)c(NC(=O)c2cccc(-c3cn[nH]c3)c2)n1 [Example 45, (R)—N-(4-(2-((2-(methoxymethyl)pyrrolidin-1-yl)amino)-2-oxoethyl)-1-phenyl-1H-imidazol-2-yl)-3-(1H-pyrazol-4-yl)benzamide] | 50 to 100 nM
Nc1ccc(-c2cccc(C(=O)Nc3nc(CCCC(=O)N4CCCCC4)cn3-c3ccccc3)c2)cn1 [Example 273, 3-(6-aminopyridin-3-yl)-N-(4-(4-oxo-4-(piperidin-1-yl)butyl)-1-phenyl-1H-imidazol-2-yl)benzamide] | < 50 nM
CN1CCN(C(=O)CCCCCc2cn(-c3ccccc3)c(NC(=O)c3cccc(-c4cnn(C)c4)c3)n2)CC1 [Example 201, 3-(1-methyl-1H-pyrazol-4-yl)-N-(4-(6-(4-methylpiperazin-1-yl)-6-oxohexyl)-1-phenyl-1H-imidazol-2-yl)benzamide] | < 50 nM
CC1(C)CCCN(C(=O)CCc2cn(-c3ccccc3)c(NC(=O)c3cccc(-c4cn[nH]c4)c3)n2)C1 [Example 34, N-(4-(3-(3,3-dimethylpiperidin-1-yl)-3-oxopropyl)-1-phenyl-1H-imidazol-2-yl)-3-(1H-pyrazol-4-yl)benzamide] | < 50 nM
Cn1cc(-c2cccc(C(=O)Nc3nc(CCCC(=O)NCCCO)cn3-c3ccccc3)c2)cn1 [Example 165, N-(4-(4-((3-hydroxypropyl)amino)-4-oxobutyl)-1-phenyl-1H-imidazol-2-yl)-3-(1-methyl-1H-pyrazol-4-yl)benzamide] | < 50 nM
COC[C@H]1CCCN1NC(=O)CCc1cn(-c2ccccc2)c(NC(=O)c2cccc(-c3cn[nH]c3)c2)n1 [Example 17, (R)—N-(4-(3-((2-(methoxymethyl)pyrrolidin-1-yl)amino)-3-oxopropyl)-1-phenyl-1H-imidazol-2-yl)-3-(1H-pyrazol-4-yl)benzamide] | > 100 nM
O=C(CCCc1cn(-c2ccccc2)c(NC(=O)c2cccc(-c3cn[nH]c3)c2)n1)NC1CC1 [Example 68, N-(4-(4-(cyclopropylamino)-4-oxobutyl)-1-phenyl-1H-imidazol-2-yl)-3-(1H-pyrazol-4-yl)benzamide] | < 50 nM
Cn1cc(-c2cccc(C(=O)Nc3nc(CCC(=O)N4CCNCC4)cn3-c3ccccc3)c2)cn1 [Example 203, 3-(1-methyl-1H-pyrazol-4-yl)-N-(4-(3-oxo-3-(piperazin-1-yl)propyl)-1-phenyl-1H-imidazol-2-yl)benzamide] | 50 to 100 nM
Cn1cc(-c2cccc(C(=O)Nc3nc(CCCC(=O)NCC(C)(C)O)cn3-c3ccccc3)c2)cn1 [Example 170, N-(4-(4-((2-hydroxy-2-methylpropyl)amino)-4-oxobutyl)-1-phenyl-1H-imidazol-2-yl)-3-(1-methyl-1H-pyrazol-4-yl)benzamide] | < 50 nM
O=C(CCc1cn(-c2ccccc2)c(NC(=O)c2cccc(-c3cn[nH]c3)c2)n1)Nc1ccc(F)cc1 [Example 10, N-(4-(3-((4-fluorophenyl)amino)-3-oxopropyl)-1-phenyl-1H-imidazol-2-yl)-3-(1H-pyrazol-4-yl)benzamide] | 50 to 100 nM
Cn1cc(-c2cccc(C(=O)Nc3nc(CCCC(=O)Nc4ccc5c(cnn5C)c4)cn3-c3ccccc3)c2)cn1 [Example 191, N-(4-(4-((1-methyl-1H-indazol-5-yl)amino)-4-oxobutyl)-1-phenyl-1H-imidazol-2-yl)-3-(1-methyl-1H-pyrazol-4-yl)benzamide] | < 50 nM
O=C(O)CCCc1cn(-c2ccccc2)c(NC(=O)c2cccc(-c3cn[nH]c3)c2)n1 [Example 57, 4-(2-(3-(1H-pyrazol-4-yl)benzamido)-1-phenyl-1H-imidazol-4-yl)butanoic acid] | < 50 nM
O=C(Nc1nc(CCCCCCN2CCCCC2)cn1-c1ccccc1)c1cccc(-c2cn[nH]c2)c1 [Example 102, N-(1-phenyl-4-(6-(piperidin-1-yl)hexyl)-1H-imidazol-2-yl)-3-(1H-pyrazol-4-yl)benzamide] | < 50 nM
